Assay [1] has as its target T1, rat μ (C6-MOR) opioid receptor (Rattus norvegicus, UniProt P33535).
T1 construct: expressed in transfected cells
Nature of the assay: Radioligand binding assay, [3H]diprenorphine displacement, MOR. The settings on record: displacement of 0.2 nM [3H]diprenorphine, C6-MOR membranes; mean ± standard error. Here is the method: (§1) In Vitro Pharmacology-Cell Lines and Membrane Preparations. All tissue culture reagents were purchased from Gibco Life Sciences (Grand Island, N.Y., U.S.). C6-rat glioma cells stably transfected with a rat μ (C6-MOR) or rat δ (C6-DOR) opioid receptor20 and Chinese hamster ovary (CHO) cells stably expressing a human K (CHO-KOR) opioid receptor21 were used for all in vitro assays. Cells were grown to confluence at 37° C. in 5% CO2 in Dulbecco's modified Eagle medium containing 10% fetal bovine serum and 5% penicillin/streptomycin. Membranes were prepared by washing confluent cells three times with ice cold phosphate buffered saline (0.9% NaCl, 0.61 mM Na2HPO4, 0.38 mM KH2PO4, pH 7.4). Cells were detached from the plates by incubation in warm harvesting buffer (20 mM HEPES, 150 mM NaCl, 0.68 mM EDTA, pH 7.4) and pelleted by centrifugation at 200 g for 3 min. The cell pellet was suspended in ice-cold 50 mM Tris-HCl buffer, pH 7.4, and homogenized with a Tissue Tearor (Biospec Products, Inc., Bartlesville, Okla., U.S.) for 20 s at setting 4. The homogenate was centrifuged at 20 000 g for 20 min at 4° C., and the pellet was rehomogenized in 50 mM Tris-HCl with a Tissue Tearor for 10 s at setting 2, followed by recentrifugation. The final pellet was resuspended in 50 mM Tris-HCl and frozen in aliquots at […]. Protein concentration was determined via Bradford assay using bovine serum albumin as the standard.
(§2) Radioligand Binding Assays. Radioactive compounds were purchased from Perkin-Elmer (Waltham, Mass., U.S.). Opioid ligand binding assays were performed using competitive displacement of 0.2 nM [3H]diprenorphine (250 μCi, 1.85 TBq/mmol) by the test compound from membrane preparations containing opioid receptors. The assay mixture, containing membrane suspension (20 μg protein/tube) in 50 mM Tris-HCl buffer (pH 7.4), [3H]diprenorphine, and various concentrations of test peptide, was incubated at room temperature for 1 h to allow binding to reach equilibrium. The samples were rapidly filtered through Whatman GF/C filters using a Brandel harvester (Brandel, Gaithersburg, Md., U.S.) and washed three times with 50 mM Tris-HCl buffer. The radioactivity retained on dried filters was determined by liquid scintillation counting after saturation with EcoLume liquid scintillation cocktail in a Wallac 1450 MicroBeta (Perkin-Elmer, Waltham, Mass., U.S.). Nonspecific binding was determined using 10 μM naloxone. Inhibitory constant (Ki) values were calculated using nonlinear regression analysis to fit a logistic equation to the competition data using GraphPad Prism, version 5.01, for Windows (GraphPad Software Inc., La Jolla, Calif.). The results presented are the mean±standard error from at least three separate assays performed in duplicate.

Assay [2] concerns the target T2, rat δ (C6-DOR) opioid receptor (Rattus norvegicus, UniProt P33533).
T2 construct: expressed in transfected cells
Kind of assay: Radioligand binding assay, [3H]diprenorphine displacement, DOR. The settings on record: displacement of 0.2 nM [3H]diprenorphine, C6-DOR membranes; mean ± standard error. As to the method:
as §1, §2

In assay [3] the target is T3, human κ (CHO-KOR) opioid receptor (Homo sapiens, UniProt P41145).
T3 construct: expressed in transfected cells
Kind of assay: Radioligand binding assay, [3H]diprenorphine displacement, KOR. The settings on record: displacement of 0.2 nM [3H]diprenorphine, CHO-KOR membranes; mean ± standard error. Here is the method: as §1, §2

In assay [4] the target is T1, rat μ (C6-MOR) opioid receptor. Kind of assay: Stimulation of [35S]GTPγS binding, MOR. The settings on record: for EC50: [35S]GTPγS binding, C6-MOR membranes, mean ± standard error; for Emax: [35S]GTPγS maximal stimulation compared with 10 μM standard DAMGO. Type of assay: biochemical. As to the method: as §1
(§3) Stimulation of [^35S]GTPyS Binding. Agonist stimulation of [35S]guanosine 5′-O-[γ-thio]triphosphate ([^35S]GTPγS, 1250 Ci, 46.2 TBq/mmol) binding was measured as described previously Briefly, membranes (10-20 μg of protein/tube) were incubated 1 h at room temperature in GTPyS buffer (50 mM Tris-HCl, 100 mM NaCl, 5 mM MgCl2, pH 7.4) containing 0.1 nM [^35S]GTPγS, 30 μM guanosine diphosphate (GDP), and varying concentrations of test peptides. Peptide stimulation of [^35S]GTPyS was compared with 10 μM standard compounds [D-Ala^2,N-MePhe^4,Gly-ol]encephalin (DAMGO) at MOR, D-Pen^2,5-enkephalin (DPDPE) at DOR, or […] at KOR. The reaction was terminated by rapidly filtering through GF/C filters and washing 10 times with GTPyS buffer, and retained radioactivity was measured as described above. The results presented are the mean±standard error from at least three separate assays performed in duplicate; maximal stimulation was determined using nonlinear regression analysis with GraphPad Prism (GraphPad Software Inc., La Jolla, Calif.).
For orientation: GTPγS is a poorly hydrolysed GTP analogue; its binding reports G protein activation.

Assay [5] concerns the target T2, rat δ (C6-DOR) opioid receptor. Nature of the assay: Stimulation of [35S]GTPγS binding, DOR. Type of assay: biochemical. The following applies: for EC50 / EC50 (nm) DOR: [35S]GTPγS binding, C6-DOR membranes, mean ± standard error; for Emax / % stimulation DOR: [35S]GTPγS maximal stimulation compared with 10 μM standard DPDPE. As to the method:
as §1, §3

T1 sequence (P33535 whole entry): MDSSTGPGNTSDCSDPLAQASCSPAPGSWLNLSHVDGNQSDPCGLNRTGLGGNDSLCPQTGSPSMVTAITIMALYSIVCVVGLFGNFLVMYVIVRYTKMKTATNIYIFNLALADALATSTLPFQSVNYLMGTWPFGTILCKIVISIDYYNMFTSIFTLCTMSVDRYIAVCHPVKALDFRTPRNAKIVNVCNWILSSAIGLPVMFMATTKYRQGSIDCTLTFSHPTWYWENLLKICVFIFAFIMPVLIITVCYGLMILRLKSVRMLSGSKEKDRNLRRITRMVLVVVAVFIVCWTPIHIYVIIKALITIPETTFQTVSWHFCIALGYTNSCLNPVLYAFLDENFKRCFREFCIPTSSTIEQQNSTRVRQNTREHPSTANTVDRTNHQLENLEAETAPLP
T3 sequence (P41145 whole entry): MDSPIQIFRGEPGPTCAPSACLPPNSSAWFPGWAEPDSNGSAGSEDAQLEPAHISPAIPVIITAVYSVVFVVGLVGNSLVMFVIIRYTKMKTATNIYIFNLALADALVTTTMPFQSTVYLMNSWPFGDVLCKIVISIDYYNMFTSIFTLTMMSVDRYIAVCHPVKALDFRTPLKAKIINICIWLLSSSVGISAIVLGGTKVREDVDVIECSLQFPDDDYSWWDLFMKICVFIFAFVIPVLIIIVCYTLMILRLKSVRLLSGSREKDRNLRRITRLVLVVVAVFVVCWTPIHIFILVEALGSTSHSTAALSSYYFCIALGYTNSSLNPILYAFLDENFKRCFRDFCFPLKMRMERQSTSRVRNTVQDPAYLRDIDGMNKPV
T2 sequence (P33533 whole entry): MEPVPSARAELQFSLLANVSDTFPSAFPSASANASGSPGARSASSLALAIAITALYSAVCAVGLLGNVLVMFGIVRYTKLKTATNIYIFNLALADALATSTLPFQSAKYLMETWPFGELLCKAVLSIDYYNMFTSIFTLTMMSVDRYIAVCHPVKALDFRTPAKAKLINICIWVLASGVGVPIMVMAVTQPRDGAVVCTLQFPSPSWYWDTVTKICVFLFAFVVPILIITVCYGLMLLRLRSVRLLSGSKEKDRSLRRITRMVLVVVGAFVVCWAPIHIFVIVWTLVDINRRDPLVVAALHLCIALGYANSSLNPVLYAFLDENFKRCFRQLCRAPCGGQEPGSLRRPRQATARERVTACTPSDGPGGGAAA

By Ki is commonly meant a measure of affinity in units of concentration, obtained from inhibition or displacement. A higher Ki goes with weaker binding. One may read the EC50 as the concentration at which the effect is half-maximal. A word on the Emax: it is the maximal effect, on the per cent scale that the assay sets. In the case of `Cc1cc(O)cc(C)c1C[C@H](N)C(=O)N[C@@H]1CCNc2ccc(Oc3ccc(Cl)cc3)cc21` [Compound 1025], the inhibitory constant (Ki) in assay [1] was 0.1 ± 0.03 nM; in assay [2], 12.1 ± 3.52 nM; in assay [3], 24.8 nM. Also, the EC50 was found to be 9.7 ± 1.32 nM in assay [4] and 0.3 nM in assay [5]. In addition, the figures for the maximum response (Emax) in assay [4] and in assay [5] were 52.9 ± 4.46% and 1.18 ± 1.18%, respectively.
In assay [1], `CCCC(=O)N1CC[C@@H](NC(=O)[C@@H](N)Cc2c(C)cc(O)cc2C)c2cc(CC3Cc4ccccc4C3)ccc21` [Compound 1034] registered an inhibitory constant (Ki) of 0.13 ± 0.02 nM. The inhibition constant (Ki) in assay [2] was found to be 0.38 ± 0.07 nM. The compound further showed a Ki in assay [3] of 25.5 ± 0.85 nM. Besides, in assay [4], the EC50 came to 4.08 ± 1.58 nM and the Emax is 63.2 ± 12.6%. In assay [5], the “EC50 (nm) DOR” value was “dns” and the “% stimulation DOR” value is “dns”.
As to `Cc1cc(O)cc(C)c1C[C@H](N)C(=O)N[C@@H]1CCNc2ccc(CC3Cc4cccc(O)c4C3)cc21` (stereo partly drawn) [Compound 1036, (2S)-2-amino-N-((4R)-6-((4-hydroxy-2,3-dihydro-1H-inden-2-yl)methyl)-1,2,3,4-tetrahydroquinolin-4-yl)-3-(4-hydroxy-2,6-dimethylphenyl)propanamide], the Ki in assay [1] stood at 0.18 ± 0.03 nM. Moreover, in assay [2], the Ki worked out at 6.01 ± 1.31 nM. In assay [3], this compound had a Ki of 20.6 ± 16.3 nM. In assay [4], this compound registered a concentration for a half-maximal effect (EC50) of 4.93 ± 1.15 nM and a maximum response (Emax) of 69.1 ± 5.74%. Also, in assay [5], the “EC50 (nm) DOR” value was “dns” and the “% stimulation DOR” value is given as “dns”.
`Cc1cc(O)cc(C)c1C[C@H](N)C(=O)N[C@@H]1CCNc2ccc(CC3Cc4ccc(O)cc4C3)cc21` (stereo partly drawn) [Compound 1038]: the Ki came out at 0.73 nM in assay [1], 19.9 ± 4.12 nM in assay [2] and 38.5 nM in assay [3]. Besides, the concentration giving a half-maximal response (EC50) in assay [4] was 11.9 ± 4.96 nM; in assay [5] it was 261 nM. Moreover, the values for the maximal response (Emax) in assay [4] and in assay [5] were 16.2 ± 3.43% and 10.5%, respectively.
The compound `Cc1cc(O)cc(C)c1C[C@H](N)C(=O)N[C@@H]1CCNc2c(Cc3ccccc3)cccc21` [Compound 1039] gave an inhibition constant Ki in assay [1] of 57.7 nM. In assay [2], this compound registered a Ki of 246 nM. The Ki in assay [3] was 977 nM. For the same compound, in assay [4], the EC50 turned out to be 988 nM and the Emax worked out at 17.9%. In assay [5], the “EC50 (nm) DOR” value was “dns” and the “% stimulation DOR” value is given as “dns”.
As to `CC(=O)N1CC[C@@H](NC(=O)[C@@H](N)Cc2c(C)cc(O)cc2C)c2cc(Cc3ccccc3)cc(Cc3ccccc3)c21` [Compound 1042], the Ki in assay [1] came out at 0.35 nM; in assay [2] it was 0.35 nM; in assay [3] it was 12.1 nM. Further, the results for the half-maximal effective concentration (EC50) in assay [4] and in assay [5] were 14.7 nM and 14.2 nM, respectively. The maximal effect (Emax) in assay [4] was determined as 75.1%; in assay [5], 30.1%.
Consider `Cc1cc(O)cc(C)c1C[C@H](N)C(=O)N[C@@H]1CCNc2ccc(CC3Cc4ccccc4C3C)cc21` (stereo partly drawn) [Compound 1043], for which the inhibition constant Ki in assay [1] came to 0.43 ± 0.18 nM; in assay [2], 12 ± 1.17 nM; in assay [3], 35.7 ± 23.6 nM. Further, the concentration giving a half-maximal response (EC50) in assay [4] was 3.21 ± 1.25 nM. In addition, in assay [4], the Emax was 92.4 ± 8.06%. Moreover, the “EC50 (nm) DOR” value in assay [5] is on record as “dns”. The “% stimulation DOR” value in assay [5] is “dns”.
`COC(=O)N1CC[C@@H](NC(=O)[C@@H](N)Cc2c(C)cc(O)cc2C)c2cc(CC3Cc4ccccc4C3)ccc21` [Compound 1044] registered an inhibition constant Ki in assay [1] of 0.09 ± 0.02 nM. Moreover, in assay [2], the inhibition constant Ki stood at 0.26 ± 0.05 nM. Further, in assay [3], the affinity, expressed as Ki, was 10.4 nM. Besides, in assay [4], the EC50 stood at 0.4 nM and the maximal response (Emax) came to 82.5%. Further, in assay [5], the “EC50 (nm) DOR” value was “dns” and the “% stimulation DOR” value is on record as “dns”.
Turning to `COc1cc2c(cc1Cc1ccccc1)[C@H](NC(=O)[C@@H](N)Cc1c(C)cc(O)cc1C)CCN2` [Compound 1045], the Ki in assay [1] stood at 0.26 ± 0.09 nM; in assay [2], 2.84 ± 0.78 nM; in assay [3], 8.51 nM. In addition, the EC50 in assay [4] is 8.03 ± 3.15 nM; in assay [5] it was 135 nM. Besides, the Emax in assay [4] amounted to 98.4 ± 2.54%; in assay [5], 32.5%.

These data come from patent US10519114B2, “Peptidomimetics and methods of using the same” (The Regents of the University of Michigan, priority 2016, dated 2019).
